# Test results as given in PubChem BioAssay (NCI).
#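 96-well plates; 48 h exposure; 5 concentrations. Endpoints by linear interpolation between flanking doses. Not reached: highest tested concentration assigned. Here, GI50 denotes the concentration required for 50% inhibition of growth. TGI: concentration producing complete growth inhibition.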
# Tests used:
# Test in all cases: DTP human tumour cell line panel, 48 h
# [1] = system: 786-0 renal
# [2] = system: A498 renal
# [3] = system: A549 NSCLC
# [4] = system: ACHN renal
# [5] = system: BT-549 breast
# [6] = system: CAKI-1 renal
# [7] = system: CCRF-CEM leukemia
# [8] = system: COLO 205 colon
# [9] = system: DU-145 prostate
# [10] = system: EKVX NSCLC
# [11] = system: HCC-2998 colon
# [12] = system: HCT-116 colon
# [13] = system: HCT-15 colon
# [14] = system: HL-60(TB) leukemia
# [15] = system: HOP-62 NSCLC
# [16] = system: HOP-92 NSCLC
# [17] = system: HS 578T breast
# [18] = system: HT29 colon
# [19] = system: IGROV1 ovarian
# [20] = system: K-562 leukemia
# [21] = system: KM12 colon
# [22] = system: LOX IMVI melanoma
# [23] = system: M14 melanoma
# [24] = system: MALME-3M melanoma
# [25] = system: MCF7 breast
# [26] = system: MDA-MB-231 breast
# [27] = system: MDA-MB-435
# [28] = system: MOLT-4 leukemia
# [29] = system: NCI-H226 lung
# [30] = system: NCI-H23 lung
# [31] = system: NCI-H460 lung
# [32] = system: NCI-H522 lung
# [33] = system: NCI/ADR-RES ovarian
# [34] = system: OVCAR-3 ovarian
# [35] = system: OVCAR-4 ovarian
# [36] = system: OVCAR-5 ovarian
# [37] = system: OVCAR-8 ovarian
# [38] = system: PC-3 prostate
# [39] = system: RPMI-8226 leukemia
# [40] = system: RXF 393 renal
# [41] = system: SF-268 CNS
# [42] = system: SF-295 CNS
# [43] = system: SF-539 CNS
# [44] = system: SK-MEL-2 melanoma
# [45] = system: SK-MEL-28 melanoma
# [46] = system: SK-MEL-5 melanoma
# [47] = system: SK-OV-3 ovarian
# [48] = system: SN12C renal
# [49] = system: SNB-19 CNS
# [50] = system: SNB-75 CNS
# [51] = system: SR leukemia
# [52] = system: SW-620 colon
# [53] = system: T-47D breast
# [54] = system: TK-10 renal
# [55] = system: U251 CNS
# [56] = system: UACC-257 melanoma
# [57] = system: UACC-62 melanoma
# [58] = system: UO-31 renal
compound,measurement,setting,value
Cc1cc2nc(CS)[nH]c2cc1C,GI50,[1],17.7 µM
same,TGI,[1],34.3 µM
same,GI50,[2],18.9 µM
same,TGI,[2],> 100 µM
same,GI50,[3],36.8 µM
same,TGI,[3],> 100 µM
same,GI50,[4],15.4 µM
same,TGI,[4],30.6 µM
same,GI50,[5],24.5 µM
same,TGI,[5],66.5 µM
same,GI50,[6],16.9 µM
same,TGI,[6],35.9 µM
same,GI50,[7],5.44 µM
same,TGI,[7],75.1 µM
same,GI50,[8],23.6 µM
same,TGI,[8],98.5 µM
same,GI50,[9],20.8 µM
same,TGI,[9],48.5 µM
same,GI50,[10],25.1 µM
same,TGI,[10],> 100 µM
same,GI50,[11],22.9 µM
same,TGI,[11],66.2 µM
same,GI50,[12],14.9 µM
same,TGI,[12],29.4 µM
same,GI50,[13],18.6 µM
same,TGI,[13],43.7 µM
same,GI50,[14],12.4 µM
same,TGI,[14],> 100 µM
same,GI50,[15],15.2 µM
same,TGI,[15],30.7 µM
same,GI50,[16],18.8 µM
same,TGI,[16],76.3 µM
same,GI50,[17],23.3 µM
same,TGI,[17],85.5 µM
same,GI50,[18],6.39 µM
same,TGI,[18],22.7 µM
same,GI50,[19],16.7 µM
same,TGI,[19],34.1 µM
same,GI50,[20],22.4 µM
same,TGI,[20],67.3 µM
same,GI50,[21],15.8 µM
same,TGI,[21],32.2 µM
same,GI50,[22],12.7 µM
same,TGI,[22],30.6 µM
same,GI50,[23],15.3 µM
same,TGI,[23],36.8 µM
same,GI50,[24],13.4 µM
same,TGI,[24],32 µM
same,GI50,[25],14.7 µM
same,TGI,[25],31.2 µM
same,GI50,[26],20.2 µM
same,TGI,[26],50 µM
same,GI50,[27],14.4 µM
same,TGI,[27],28.7 µM
same,GI50,[28],2.85 µM
same,TGI,[28],8.53 µM
same,GI50,[29],14 µM
same,TGI,[29],28.7 µM
same,GI50,[30],28.8 µM
same,TGI,[30],> 100 µM
same,GI50,[31],18.7 µM
same,TGI,[31],54.6 µM
same,GI50,[32],3.48 µM
same,TGI,[32],19.4 µM
same,GI50,[33],22.8 µM
same,TGI,[33],95.4 µM
same,GI50,[34],14.4 µM
same,TGI,[34],27.9 µM
same,GI50,[35],13.1 µM
same,TGI,[35],32 µM
same,GI50,[36],21.4 µM
same,TGI,[36],43.5 µM
same,GI50,[37],20.2 µM
same,TGI,[37],50.6 µM
same,GI50,[38],16.1 µM
same,TGI,[38],46.4 µM
same,GI50,[39],14.3 µM
same,TGI,[39],40.7 µM
same,GI50,[40],17.5 µM
same,TGI,[40],31.6 µM
same,GI50,[41],20.5 µM
same,TGI,[41],57.5 µM
same,GI50,[42],5.35 µM
same,TGI,[42],25 µM
same,GI50,[43],20.5 µM
same,TGI,[43],45 µM
same,GI50,[44],15.7 µM
same,TGI,[44],34.7 µM
same,GI50,[45],15.5 µM
same,TGI,[45],32.2 µM
same,GI50,[46],13.7 µM
same,TGI,[46],27.2 µM
same,GI50,[47],37.5 µM
same,TGI,[47],> 100 µM
same,GI50,[48],25.1 µM
same,TGI,[48],71.3 µM
same,GI50,[49],27.6 µM
same,TGI,[49],> 100 µM
same,GI50,[50],14.9 µM
same,TGI,[50],33.9 µM
same,GI50,[51],6.69 µM
same,TGI,[51],37.6 µM
same,GI50,[52],13 µM
same,TGI,[52],30.9 µM
same,GI50,[53],15.6 µM
same,TGI,[53],37.5 µM
same,GI50,[54],15 µM
same,TGI,[54],29.7 µM
same,GI50,[55],14 µM
same,TGI,[55],30 µM
same,GI50,[56],20.9 µM
same,TGI,[56],54 µM
same,GI50,[57],13.6 µM
same,TGI,[57],28.2 µM
same,GI50,[58],14.2 µM
same,TGI,[58],28.1 µM
CCOC(=O)c1cnc2c(C)cc(C)cc2c1NCCCN(C)C,GI50,[1],4.91 µM
same,TGI,[1],25.7 µM
same,GI50,[2],2.85 µM
same,TGI,[2],14.9 µM
same,GI50,[3],5.29 µM
same,TGI,[3],> 100 µM
same,GI50,[4],3.09 µM
same,TGI,[4],40.4 µM
same,GI50,[5],11.5 µM
same,TGI,[5],39.9 µM
same,GI50,[6],3.9 µM
same,TGI,[6],> 100 µM
same,GI50,[7],13.6 µM
same,TGI,[7],62.7 µM
same,GI50,[8],1.58 µM
same,TGI,[8],3.55 µM
same,GI50,[9],3.8 µM
same,TGI,[9],55.8 µM
same,GI50,[10],4.22 µM
same,TGI,[10],35.6 µM
same,GI50,[11],5.35 µM
same,TGI,[11],19.6 µM
same,GI50,[12],2.74 µM
same,TGI,[12],21.4 µM
same,GI50,[13],3.69 µM
same,TGI,[13],51.7 µM
same,GI50,[14],5.6 µM
same,TGI,[14],57.1 µM
same,GI50,[15],4.66 µM
same,TGI,[15],44.2 µM
same,GI50,[16],2.08 µM
same,TGI,[16],12.5 µM
same,GI50,[17],4.37 µM
same,TGI,[17],28.3 µM
same,GI50,[18],1.53 µM
same,TGI,[18],3.85 µM
same,GI50,[19],4.98 µM
same,TGI,[19],> 100 µM
same,GI50,[20],4.81 µM
same,TGI,[20],35.2 µM
same,GI50,[21],4.15 µM
same,TGI,[21],27.2 µM
same,GI50,[22],2.83 µM
same,TGI,[22],13.6 µM
same,GI50,[23],4.67 µM
same,TGI,[23],17.5 µM
same,GI50,[24],5.84 µM
same,TGI,[24],21.7 µM
same,GI50,[25],2.78 µM
same,TGI,[25],15.7 µM
same,GI50,[26],3.1 µM
same,TGI,[26],20.4 µM
same,GI50,[27],4.09 µM
same,TGI,[27],18.1 µM
same,GI50,[28],4.58 µM
same,TGI,[28],33.7 µM
same,GI50,[29],4.12 µM
same,TGI,[29],26.8 µM
same,GI50,[30],4.29 µM
same,TGI,[30],21.4 µM
same,GI50,[31],2.57 µM
same,TGI,[31],9.14 µM
same,GI50,[32],11.2 µM
same,TGI,[32],35 µM
same,GI50,[33],3.57 µM
same,TGI,[33],78.3 µM
same,GI50,[34],3.62 µM
same,TGI,[34],27.5 µM
same,GI50,[35],3.25 µM
same,TGI,[35],14 µM
same,GI50,[36],4.53 µM
same,TGI,[36],46.1 µM
same,GI50,[37],5.67 µM
same,TGI,[37],> 100 µM
same,GI50,[38],4.08 µM
same,TGI,[38],85.1 µM
same,GI50,[39],17 µM
same,TGI,[39],46.5 µM
same,GI50,[40],5.86 µM
same,TGI,[40],25 µM
same,GI50,[41],3.91 µM
same,TGI,[41],23.9 µM
same,GI50,[42],3.3 µM
same,TGI,[42],37.2 µM
same,GI50,[43],3.48 µM
same,TGI,[43],14 µM
same,GI50,[44],9.7 µM
same,TGI,[44],31.7 µM
same,GI50,[45],13 µM
same,TGI,[45],26.1 µM
same,GI50,[46],4.38 µM
same,TGI,[46],16.5 µM
same,GI50,[47],3.98 µM
same,TGI,[47],32.4 µM
same,GI50,[48],3.82 µM
same,TGI,[48],> 100 µM
same,GI50,[49],5.27 µM
same,TGI,[49],60.1 µM
same,GI50,[50],2.74 µM
same,TGI,[50],17.4 µM
same,GI50,[51],2.52 µM
same,TGI,[51],8.21 µM
same,GI50,[52],3.43 µM
same,TGI,[52],41.7 µM
same,GI50,[53],4.73 µM
same,TGI,[53],29.4 µM
same,GI50,[54],3.91 µM
same,TGI,[54],88 µM
same,GI50,[55],4.66 µM
same,TGI,[55],76.2 µM
same,GI50,[56],10.2 µM
same,TGI,[56],26.2 µM
same,GI50,[58],2.87 µM
same,TGI,[58],> 100 µM
